The results in this text go back to patent US6890906B2, “Method for controlling angiogenesis in animals” (Glycogenesys, Inc., priority 2001, dated 2005).

Experiment [1] deals with human umbilical vein endothelial cells (HUVEC). The following applies: for AVERAGE cell count: average of runs; for Cell count (cells that migrated through the membrane): single runs, 4 hours, 37° C. As to the method:
In a first portion of the experimental series, the effect of the chemoattractant vascular endothelial growth factor (VEGF) on human umbilical vein endothelial cells (HUVEC) was quantified. The experiment was carried out in a transwell plate, and in preparation therefor, HUVEC cells were grown to approximately 80% confluency. The cells were suspended in basal media and placed in a transwell plate on fibronectin coated membrane inserts at 50,000 cells per insert. Varying concentrations of VEGF were added to the bottom chamber of the transwell plate, and the plates incubated for 4 hours at 37° C. with a 5% CO2 atmosphere. Following incubation, the membranes were fixed and stained. Nonmigrated cells were removed by mechanical abrasion and cells that migrated through the membrane were counted. […] Three runs were made.

For experiment [2] the test system is unchanged. Kind of experiment: Inhibition of VEGF-induced HUVEC cell migration by modified pectin in transwell plate. The experiment is classed as cell-based. The note with it: VEGF 30 ng/ml Only (positive control, no GCS-100). As to the method: Following incubation, the membranes were fixed and stained. […] Three runs were made.
The material comprised a modified pectin which is commercially available from GlycoGenesys, Inc. of Boston, Mass., under the designation GCS-100. In this experimental series, HUVEC cells were incubated in a transwell plate with VEGF, and varying concentrations of the therapeutic material, under conditions as described hereinabove. The concentration of VEGF was 30 ng/ml. In one group of experiments, cells were incubated with VEGF in the absence of the carbohydrate material, and these experiments served as a positive control. In another group of experiments, cells were incubated with growth medium and no VEGF or therapeutic carbohydrate, and this group served as a negative control. In the remaining experiments, concentrations of the GCS-100 ranging from 0.001% to 0.1% were employed.

“And” between values parts separate entries of the source, which are not always exact repeats. Identical values can stand only once. Like-named read-outs stand apart in the source and are kept apart here.

For the substance “vascular endothelial growth factor [VEGF]”, the AVERAGE cell count came to 734 in experiment [1] (1 ng/ml VEGF); 1043 in experiment [1] (3 ng/ml VEGF); 1218 in experiment [1] (10 ng/ml VEGF); 1162 in experiment [1] (30 ng/ml VEGF); 1210 in experiment [1] (100 ng/ml VEGF); 1244 in experiment [2] (average). In addition, the “Cell count (cells that migrated through the membrane)” value in experiment [1] (1 ng/ml VEGF) was 607 and 766 and 830; in experiment [1] (3 ng/ml VEGF), 950 and 1136; in experiment [1] (10 ng/ml VEGF), 1144 and 938 and 1573; in experiment [1] (30 ng/ml VEGF), 898 and 1448 and 1140; in experiment [1] (100 ng/ml VEGF) it was 1650 and 901 and 1078. Besides, in experiment [1] (VEGF concentrations of 10-30 ng/ml), the chemotactic effect result is on record as “strong chemotactic effect”. Besides, the “Cell count (migrated cells)” value in experiment [2] (single runs) was 1322 and 1167.
